Results on one molecule are retold here after patent US9072295B2, “Herbicidal compositions” (Syngenta Participations AG, priority 2011, dated 2015).

Assay [1] relates to maize varieties (LEXXOR, PACTOL, CLAXXON, GARLAND and SUNDANCE). Briefly: Greenhouse study: herbicidal damage to maize after pre-emergence PPGO inhibiting herbicides, with or without safener seed treatment. The format is in vivo. The note with it: seed treatment 1 g/kg seed; 8 DAA. The method, then:
A greenhouse study is performed to evaluate the safener response of various maize varieties to various PPGO inhibiting herbicides. […] Control seed is also included in the test which contains no safener seed treatment. Herbicide treatments are applied pre-emergence, at the indicated application rates, using a laboratory tracksprayer with a TeeJet 11002VS nozzle. The sprayer is set to deliver an output of 200 L/ha by applying an air pressure of 2 bar. The treated and control seeds are then planted in the treated sandy loam soil contained in 10 cm deep plastic trays and watered from the top of the trays as needed.

The subject of another assay is Winter wheat. Nature of the assay: Field test: herbicidal damage to winter wheat after pre-emergence fomesafen, with or without safener A seed treatment. The note with it: seed treatment 100 g/100 kg seed; fomesafen up to 560 g/ha. The protocol:
Winter wheat seed is treated with safener A (1-[4-(N-2-methoxybenzoylsulfamoyl)phenyl]-3-methylurea) at 100 g safener/100 kg of seed. Control seed is also included which contains no safener seed treatment. The wheat seed is then planted in a field as a randomized block design including four replications.

With `CNC(=O)Nc1ccc(S(=O)(=O)NC(=O)c2ccccc2OC)cc1` [Safener A, 1-[4-(N-2-methoxybenzoylsulfamoyl)phenyl]-3-methylurea], in assay [1], the “Safening against sulfentrazone in maize” value is “particularly good safening” and the “Safening of the various PPGO inhibiting herbicides tested in maize” value is on record as “highly effective safening”. Moreover, the “Safening of fomesafen in winter wheat” value with Winter wheat is recorded as “highly effective safening”.
